Here are results for two compounds from ChEMBL document CHEMBL5728826, “Benzimidazole compounds and derivatives as EGFR inhibitors” (2021).

This assay addresses Epidermal growth factor receptor (Homo sapiens, UniProt P00533). In words: Biochemical EGFR Inhibition Assays ([…]): 5 μL of EGFR enzyme form in assay buffer (50 mM HEPES pH 7.3, 10 mM MgCl2, 1 mM EGTA, 0.01% Tween 20, 2 mM DTT) are dispensed into columns 1-23, than 5 μL of ATP and ULight-poly-GT substrate (PerkinElmer; TRF0100-M) mix in assay buffer is added to all wells (final assay concentration of the ULight-poly-GT substrate 200 nM). Each of the different ….

SMILES strings stand for the structures. Bounds are passed on as bounds.

Epidermal growth factor receptor, sequence (P00533 whole entry): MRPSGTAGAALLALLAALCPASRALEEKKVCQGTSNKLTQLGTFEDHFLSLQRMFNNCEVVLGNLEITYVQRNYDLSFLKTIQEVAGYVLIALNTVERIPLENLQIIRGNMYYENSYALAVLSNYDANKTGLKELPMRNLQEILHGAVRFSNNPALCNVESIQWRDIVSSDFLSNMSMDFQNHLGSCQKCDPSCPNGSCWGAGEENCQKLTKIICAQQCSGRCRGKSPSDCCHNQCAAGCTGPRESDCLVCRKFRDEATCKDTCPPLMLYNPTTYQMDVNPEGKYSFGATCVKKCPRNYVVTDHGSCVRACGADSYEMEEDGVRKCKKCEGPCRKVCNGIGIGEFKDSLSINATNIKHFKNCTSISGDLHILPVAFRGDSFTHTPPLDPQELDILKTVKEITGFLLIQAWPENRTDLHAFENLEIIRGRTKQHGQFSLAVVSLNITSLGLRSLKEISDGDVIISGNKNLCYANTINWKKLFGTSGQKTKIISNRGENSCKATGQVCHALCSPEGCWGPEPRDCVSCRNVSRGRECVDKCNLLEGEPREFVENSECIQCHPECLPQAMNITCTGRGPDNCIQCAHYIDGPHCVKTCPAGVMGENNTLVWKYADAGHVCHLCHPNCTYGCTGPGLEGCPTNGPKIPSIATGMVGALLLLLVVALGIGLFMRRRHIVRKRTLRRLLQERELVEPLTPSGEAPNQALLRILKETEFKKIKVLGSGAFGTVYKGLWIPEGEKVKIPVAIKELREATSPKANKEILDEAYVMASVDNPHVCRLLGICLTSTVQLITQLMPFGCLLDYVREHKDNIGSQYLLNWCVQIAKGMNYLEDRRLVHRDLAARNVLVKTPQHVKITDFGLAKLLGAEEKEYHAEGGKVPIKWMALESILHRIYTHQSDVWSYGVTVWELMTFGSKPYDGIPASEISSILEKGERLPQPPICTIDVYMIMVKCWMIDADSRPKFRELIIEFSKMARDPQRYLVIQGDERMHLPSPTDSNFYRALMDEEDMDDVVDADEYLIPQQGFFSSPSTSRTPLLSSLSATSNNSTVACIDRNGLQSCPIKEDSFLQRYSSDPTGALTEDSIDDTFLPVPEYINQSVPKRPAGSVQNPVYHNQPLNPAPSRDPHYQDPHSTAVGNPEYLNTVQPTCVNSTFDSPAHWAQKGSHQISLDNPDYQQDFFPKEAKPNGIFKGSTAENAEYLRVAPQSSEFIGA

The term IC50 denotes the concentration at which inhibition is half-maximal. A high value points to weaker potency. For `COc1ccncc1-c1cc(C(=O)/N=c2\[nH]c3cc(C4CCN(C(C)=O)CC4)ccc3n2CC(C)(C)O)ccn1`, the half-maximal inhibitory concentration (IC50) was found to be 0.217 µM.
The same measure for `Cn1cc(-c2cc(C(=O)/N=c3\[nH]c4ccccc4n3CC(C)(C)O)ccn2)cn1`: > 100 µM.
